“Also recorded” adds a separate entry of the source.
Experiments:
[1] = system: TGFβ-induced luciferase activity; experiment: Spectrum collection small molecule screen with TGFβ-dependent SBE-luciferase HEK293FT reporter cell line; assay type: cell-based, human; conditions: HEK293FT-luc reporter line
Text: The minimal thymidine kinase promoter was amplified by PCR with the following forward and reverse primers, of which the forward primer contained four tandem Smad binding elements (SBE):
Restriction sites in the primers are underlined. The resultant PCR product was TOPO cloned (Invitrogen) and the correct insert was verified by DNA sequencing. The construct was digested with SacI-HindIII and the SBEx4-TK insert was purified and ligated with the pGL4.15 vector (Promega). Clones were verified by restriction digest and then tested for TGFβ responsiveness in transient transfections of 293FT cells. […] Clones were selected by treatment with 200 μg/ml hygromycin. 20 clones were selected and screened for TGFβ-induced luciferase activity. One clone that was robustly responsive was subsequently used in the small molecule screen.
Excessive scarring results from the formation of too many myofibroblasts and the production of too much extracellular matrix material such as collagen. Since TGFβ drives the formation of myofibroblasts in part through activating the Smad pathway, a reporter construct was designed to serve as a measure of TGFβ-induced Smad activity (FIG. 1A). Four tandem Smad binding elements (SBE) were inserted upstream of the minimal thymidine kinase promoter. The SBEx4-TK promoter was inserted into the pGL4.15 vector which contains a destabilized firefly luciferase gene and the hygromycin resistance gene. The pSBEx4-TK-luc-Hygro plasmid was then introduced into HEK293FT cells by lipofection. Stable clones were generated and screened for TGFβ induced luciferase activity. One clone was selected that consistently gave a 15 to 20-fold induction of luciferase activity when cells were treated with TGFβ for 24 hours (FIG. 1B).
To find compounds that inhibit TGFβ activity and thus may be novel anti-scarring compounds, the Spectrum collection of 2,300 small molecules was screened with the cell line. […] Salinomycin, an antibiotic produced from Streptomyces albus is used as coccidiostat agent in animal feed (Knirschova et al., “Multiple regulatory genes in the salinomycin biosynthetic gene cluster of Streptomyces albus CCM 4719,” Folia Microbiologica 52:359-365 (2007), which is hereby incorporated by reference in its entirety). […] Thus, further investigation was made to assess the use of salinomycin as an anti-scarring agent.

[2] = system: TGFβ-induced SBE-luciferase activity; experiment: Secondary dual luciferase screen (SBE-luciferase normalized to constitutive Renilla luciferase); assay type: cell-based, human; conditions: secondary dual luciferase screen, several doses (low micromolar)
Protocol: FIG. 1A is a diagram of Smad-dependent reporter construct. Four tandem Smad binding elements (SBE) were inserted upstream of the minimal Thymidine Kinase (TK) promoter. Downstream of the promoter is a destabilized version of the firefly luciferase gene (luc2P) present in the pLuc2P-Hygro plasmid which also harbors the hygromycin resistance gene. The plasmid was introduced into HEK293FT cell line and individual colonies were selected with hygromycin (200 ug/ml) to develop a Smad/TGFβ dependent-luciferase reporter cell line. FIG. 1B is a graph illustrating the response of the reporter cell line to 1 ng/ml treatment of TGFβ for 20 hours, which results in an approximately 20-fold increase of luciferase activity.
They are: Benzbromarone (“BZB”), Bithionate sodium (“BTS”), Piplartine (piperlongumine) (“PPT”), Amsacrine (“ASC”), and Alexidine (“AXD”). A secondary luciferase screening assay was performed to determine specificity and dose responsiveness of these compounds in comparison to salinomycin (“SNC”). The secondary screen utilizes dual luciferase technology that includes the above mentioned SBE-luciferase in addition to a Renilla luciferase that is under control of the constitutive SV40 promoter. Therefore the SBE-luciferase activity can be normalized to the Renilla luciferase activity to control for toxicity and non-specific effects. The secondary screen can thus be used to remove small molecules that display overt toxicity and/or non-specific effects on the primary assay.

[3] = system: TGFβ-dependent myofibroblast formation in primary human fibroblasts; experiment: Myofibroblast formation assay in primary human fibroblasts (morphology, Western blot) for Spectrum hits; assay type: cell-based; conditions: for α-SMA and calponin expression in human fibroblasts: FIG. 14 lanes: PPT 1, 5 uM, AXD 0.1, 1 uM, SNC 100 nM, 1 uM; for α-SMA and calponin expression in human fibroblasts / TGFβ-dependent αSMA and calponin (marker) expression / myofibroblast formation / phenotype: BTS, ASC; for TGFβ-dependent αSMA and calponin (marker) expression: higher dose: PPT 5 μM; for TGFβ-dependent αSMA and calponin (marker) expression / myofibroblast formation / phenotype: AXD 1 μM; for myofibroblast formation / phenotype: lowest effective dose from secondary screen: PPT 5 μM, SNC 0.1 μM, TGFβ 1 ng/ml, 72 hours
Protocol: Using the lowest effective dose from the secondary screening assay, PPT (5 μM), ASC (1 μM), BTS (1 μM), and AXD (1 μM) were compared to 0.1 μM SNC using primary human fibroblasts (FIG. 13). The myofibroblast formation assay consists of the following protocol: fibroblasts are treated with the aforementioned small molecules and treated with TGFβ (1 ng/ml) for 72 hours. The cells were then either photographed for morphological analysis or collected, lysed and analyzed by Western blot for the myofibroblast markers alpha-smooth muscle actin (αSMA) and calponin. β-tubulin was used as a loading control.
PPT was used at 1 and 5 μM (lanes 3 and 4), BTS was used at 0.1 and 1 μM (lanes 5 and 6), ASC was used at 0.1 and 1 μM (lanes 7 and 8), SNC was used at 100 nM and 1 μM (lanes 9 and 10), and AXD was used at 0.1 and 1 μM (lanes 11 and 12).

[4] = system: primary human orbital fibroblasts; experiment: TGFβ-induced myofibroblast formation, αSMA Western blot, primary human orbital fibroblasts; conditions: for overt toxicity / TGFβ-induced myofibroblast differentiation (αSMA expression): 2-500 μM
Protocol: Total protein was isolated from 0.5-2×10^6 cells and lysed in 60 mM Tris, pH 6.8, 2% SDS containing 1× protease inhibitor cocktail (Sigma, St. Louis, Mo.). The lysates were passed through a 26 gauge needle 5-6 times to shear genomic DNA. Protein concentrations were determined using the detergent compatible protein assay (BioRad). Total protein (1-10 ug per lane) was subjected to SDS-PAGE. Protein gels were transferred to PVDF membrane (Millipore) and probed with antibodies as specified. Western blot band intensities were quantified using ImageLab software (BioRad). Protein expression was normalized to β-tubulin levels.
Primary human orbital fibroblasts, primary human lung fibroblasts, and primary mouse lung fibroblasts were treated with TGFβ and HCPT (50 nM, 500 nM, and 5000 nM) or SNC (500 nM) or AXD (0.5 μM, 5 μM, and 50 μM) to assess the ability of HCPT to inhibit myofibroblast formation. […] Western blots were performed using cell lysates from the fibroblasts exposed to TGFβ to assess TGFβ-dependent αSMA expression.
Primary human orbital fibroblasts were treated with TGFβ and either 6-formylindolo(3,2-b)carbazole (“FICZ”, 1 μM), Omeprazole (“Ome”, 2 μM, 10 μM, 50 μM, 100 μM, 250 μM, 500 μM), or Flutamide (“Flut”, 2 μM, 10 μM, 50 μM, 100 μM, 250 μM, 500 μM) to assess their ability to inhibit myofibroblast formation. […] Western blots were performed using cell lysates from the fibroblasts exposed to TGFβ to assess TGFβ-dependent αSMA expression. Densitometry analyses of the Western blots were also performed.

Row | Structure (SMILES) | inhibition of TGFβ-induced luciferase activity, initial screen [1] | inhibition of luciferase expression, dose responsiveness [2] | α-SMA and calponin expression in human fibroblasts [3] | TGFβ-dependent αSMA and calponin (marker) expression [3] | myofibroblast formation / phenotype [3] | αSMA expression ([4]; 100 μM) | overt toxicity [4] | TGFβ-induced myofibroblast differentiation (αSMA expression) [4] | expression of Thy1 ([3]; high dose, 1 μM)
1 | Oc1c(Cl)cc(Cl)cc1Sc1cc(Cl)cc(Cl)c1O [BTS, bithionate sodium] | inhibit TGFβ-induced luciferase | substantially inhibited luciferase expression; also recorded: strong luciferase inhibition | inhibit β-dependent α-SMA and calponin expression | inhibited marker expression | inhibit myofibroblast phenotype; also recorded: inhibits myofibroblast formation |  |  |  | 
2 | COc1cc(/C=C/C(=O)N2CCC=CC2=O)cc(OC)c1OC [PPT, piplartine (piperlongumine)] | inhibit TGFβ-induced luciferase | substantially inhibited luciferase expression; also recorded: strong luciferase inhibition | inhibit β-dependent α-SMA and calponin expression | inhibited marker expression | inhibit myofibroblast phenotype; also recorded: inhibits myofibroblast formation |  |  |  | 
3 | COc1ccc2[nH]c([S+]([O-])Cc3ncc(C)c(OC)c3C)nc2c1 (racemic) [omeprazole] |  |  |  |  |  | sub-baseline levels | No overt toxicity was observed | inhibited TGFβ-induced myofibroblast differentiation; also recorded: inhibits human orbital fibroblast to myofibroblast differentiation | 
4 | CCc1oc2ccccc2c1C(=O)c1cc(Br)c(O)c(Br)c1 [BZB, benzbromarone] | inhibit TGFβ-induced luciferase | All but BZB substantially inhibited luciferase expression |  |  |  |  |  |  | 
5 | CC(C)C(=O)Nc1ccc([N+](=O)[O-])c(C(F)(F)F)c1 [flutamide, Flutamide] |  |  |  |  |  |  | No overt toxicity was observed | inhibited TGFβ-induced myofibroblast differentiation; also recorded: inhibits human orbital fibroblast to myofibroblast differentiation | 
6 | CCCCC(CC)CNC(=N)NC(=N)NCCCCCCNC(=N)NC(=N)NCC(CC)CCCC (stereo not shown) [AXD, alexidine] | inhibit TGFβ-induced luciferase | substantially inhibited luciferase expression; also recorded: strong luciferase inhibition | inhibit β-dependent α-SMA and calponin expression | inhibited marker expression | inhibit myofibroblast phenotype; also recorded: inhibits myofibroblast formation |  |  |  | did inhibit Thy1
7 | COc1cc(NS(C)(=O)=O)ccc1Nc1c2ccccc2nc2ccccc12 [ASC, amsacrine] | inhibit TGFβ-induced luciferase | substantially inhibited luciferase expression; also recorded: strong luciferase inhibition | inhibit β-dependent α-SMA and calponin expression | inhibited marker expression | inhibit myofibroblast phenotype; also recorded: inhibits myofibroblast formation |  |  |  | 

Source: US10548911B2, “Small molecule anti-scarring agents” (UNIVERSITY OF ROCHESTER, priority 2014, dated 2020)
